Results reported in patent publication US8497274B2, “Heterocyclic compound and use thereof” (Takeda Pharmaceutical Company Limited, priority 2008, dated 2013).

Columns and labels:
[1] = target: BRAF (V600E) kinase (Homo sapiens (Human), UniProt P15056, V600E); assay: BRAF (V600E) kinase inhibitory activity; assay type: biochemical; settings: BRAF (V600E) enzyme, GSTP1-MEK1 (K96R) substrate, compound 1.0 μM; read-out: Inhibitory rate (%) at 1.0 μM
Experimental: A test compound (2.5 μL) dissolved in dimethyl sulfoxide (DMSO) was added to 37.5 μL of a reaction solution (25 mM HEPES (pH 7.5), 10 mM magnesium acetate, 1 mM dithiothreitol) containing 30 ng of BRAF (V600E) enzyme and 250 ng of recombinant protein GSTP1-MEK1 (K96R) prepared using FreeStyle 293 expression system (Invitrogen), and the mixture was incubated at room temperature for 10 min. 10 μL of ATP solution (2.5 μM ATP, 0.1 μCi [γ-^32P]ATP) was added to the obtained mixture, and the mixture was reacted at room temperature for 20 min. The reaction was quenched by adding 50 μL of ice-cooled 20% trichloroacetic acid (Wako Pure Chemical Industries, Ltd.) to the reaction solution. The reaction solution was allowed to stand at 4° C. for 30 min., and the acid-precipitable fraction was transferred to GF/C filter plate (Millipore Corporation) using cell harvester (PerkinElmer). The plate was dried at 45° C. for 60 min., and 40 μL of MicroScinti 0 (PerkinElmer) was added thereto. The radioactivity was measured using TopCount (PerkinElmer). The kinase inhibitory rate (%) of the test compound was calculated by the following formula: Inhibitory rate (%)=(1−(count of test compound−blank)÷(control−blank))×100
The count of the solution reacted without addition of the compound was used as a “control”, and the count of the solution without the compound and enzyme was used as a “blank”.

[2] = tested on: MEK1/2 phosphorylation in human colon cancer cell HT-29; assay: Colon cancer cell HT-29 intracellular MEK phosphorylation inhibitory activity in vitro; assay type: cell-based; settings: HT-29 cells; for IC50: 2 hrs treatment, phosphorylated MEK1/2 Western blot; for inhibition at 0.5 µM: MEK1/2 protein phosphorylation, compound 0.5 μM, read-out: Inhibitory rate (%) at 0.5 μM
Experimental: 500 μL of a cell suspension of human colon cancer cell HT-29 (purchased from American Type Culture Collection (ATCC)) was plated in a 48-well plate (100,000 cells/well), and the cells were cultured overnight at 37° C. in the presence of 5% CO2, treated with a test compound (250 μL/well) diluted in 3-fold dilution series and cultured for 2 hrs. After 2 hrs, the culture medium containing the test compound was removed, and the cells were lysed with SDS sample buffer (100 μL/well) and heated at 95° C. for 5 min. Thereafter, the cells lysed with SDS sample buffer were applied to SDS-PAGE, and the protein was transferred onto Sequi-Blot™ PVDF Membrane (Bio-Rad) by the Western blot method. The PDVF membrane was blocked with a Block-Ace solution (Snow Brand Milk Products Co., Ltd) dissolved in phosphate buffered saline (MP Biochemicals) to 5% W/V, and reacted overnight with anti-phosphorylated MEK1/2 (Ser217/221) (Cell signaling #9121) diluted 1000-fold with phosphate buffered saline containing 0.4% Block-Ace. The membrane was washed with phosphate buffered saline containing 0.1% Tween 20 (Wako Pure Chemical Industries, Ltd.), and reacted at room temperature for 1 hr with HRP labeled rabbit IgG polyclonal antibody (Cell signaling #7074) diluted 1000-fold with phosphate buffered saline containing 0.4% Block-Ace. The membrane was washed in the same manner as above, chemical luminescence of a phosphorylated MEK1/2 protein labeled with the antibody, which was caused by ECL-plus Detection Reagent (Amersham bioscience), was detected by Luminescent Image Analyzer LAS-1000 (FUJIFILM Corporation). Taking the luminescence of the control group free of the test compound as 100%, the concentration (IC50 value) of the compound necessary for inhibiting the residual luminescence to 50% of the control group was calculated. In addition, MEK1/2 protein phosphorylation inhibitory rate (%) of the test compound at compound concentration 0.5 μM was calculated by the following formula. The results are shown in Table 2-B. Inhibitory rate (%)=(1−(luminescence of test compound−blank)÷(luminescence of control group−blank))×100

[3] = tested on: human colon cancer cell HT-29; assay: Colon cancer cell HT-29 growth suppressive activity in vitro; assay type: cell-based; settings: for IC50: 72 h, HT-29 cells, 3 days culture, SRB staining; for inhibition at 10 µM: HT-29 cell proliferation, compound 10 μM, read-out: Inhibitory rate (%) at 10 μM
Experimental: 100 μL of a cell suspension (3,000 cells/well) of human colon cancer cell HT-29 (purchased from ATCC) was plated in a 96-well plate, and the cells were cultured at 37° C. in the presence of 5% CO2. The next day, 100 μL of culture medium containing each test compound diluted in 2-fold dilution was added, and the cells were cultured for 3 days. The culture medium containing the test compound was removed, and the cells were washed with phosphate buffered saline (MP Biochemicals). A 50% trichloroacetic acid solution was added to the final concentration of 10% (v/v), and the mixture was stood overnight at 4° C., whereby the cells were fixed to the plate. Then, a dye SRB 0.4% (w/v) solution (dissolved in 1% acetic acid) was added at 50 μl/well, whereby the cell protein was fixed and stained (Skehan et al., Journal Of National Cancer Institute, vol. 82, pp. 1107-1112, 1990). The cells were washed 3 times with 1% acetic acid solution (200 μL/well), and 100 μL of an extract (10 mM Tris buffer) was added to extract the dye. The absorbance at an absorption wavelength 550 nm was measured, and cell amount was measured as a protein amount. Taking the protein amount of the control group free of the test compound solution as 100%, the proportion of the residual protein amount of each treatment group was determined and the concentration of the compound necessary for suppressing the residual cell amount to 50% of the control (IC50 value) was calculated. In addition, cell proliferation inhibitory rate (%) of the test compound at compound concentration 10 μM was calculated by the following formula. The results are shown in Table 3-B. Inhibitory rate (%)=(1−(absorbance of test compound−blank)÷(absorbance of control group−blank))×100

BRAF (V600E) kinase, sequence (P15056 457-717 V600E): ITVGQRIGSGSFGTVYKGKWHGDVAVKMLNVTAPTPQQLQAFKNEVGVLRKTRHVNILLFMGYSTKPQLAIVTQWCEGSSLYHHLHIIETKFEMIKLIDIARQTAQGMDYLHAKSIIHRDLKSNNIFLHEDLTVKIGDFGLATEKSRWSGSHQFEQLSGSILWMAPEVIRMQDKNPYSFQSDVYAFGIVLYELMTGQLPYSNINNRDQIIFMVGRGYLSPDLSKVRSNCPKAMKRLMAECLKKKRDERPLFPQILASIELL

SMILES | inhibition at 1 µM [1] | IC50 [2] | inhibition at 0.5 µM [2] | further results
CC(C)(C#N)c1cccc(C(=O)Nc2cccc(Oc3ccc4nc(NC(=O)C5CC5)sc4c3C#N)c2)c1 [Example 1, N-[3-({7-cyano-2-[(cyclopropylcarbonyl)amino]-1,3-benzothiazol-6-yl}oxy)phenyl]-3-(1-cyano-1-methylethyl)benzamide] | 101% | – | – | –
CC(=O)Nc1nc2ccc(Oc3cccc(NC(=O)c4cccc(C(C)(C)C#N)c4)c3)c(C#N)c2s1 [Example 11, N-(3-{[2-(acetylamino)-7-cyano-1,3-benzothiazol-6-yl]oxy}phenyl)-3-(1-cyano-1-methylethyl)benzamide] | 101% | – | – | –
CC(=O)Nc1nc2ccc(Oc3cccc(NC(=O)C(C)(C)c4cccc(Br)c4)c3)c(C#N)c2s1 [Example 13, N-(3-{[2-(acetylamino)-7-cyano-1,3-benzothiazol-6-yl]oxy}phenyl)-2-(3-bromophenyl)-2-methylpropanamide] | 98% | – | – | –
CC(=O)Nc1nc2ccc(Oc3cccc(NC(=O)Nc4ccc(Cl)c(C(F)(F)F)c4)c3)c(C#N)c2s1 [Example 21, N-{6-[3-({[4-chloro-3-(trifluoromethyl)phenyl]carbamoyl}amino)phenoxy]-7-cyano-1,3-benzothiazol-2-yl}acetamide] | 100% | – | – | –
CC(=O)Nc1nc2ccc(Oc3cccc(NC(=O)Nc4ccc(C(C)(C)C)cc4)c3)c(C#N)c2s1 [Example 22, N-[6-(3-{[(4-tert-butylphenyl)carbamoyl]amino}phenoxy)-7-cyano-1,3-benzothiazol-2-yl]acetamide] | – | < 300 nM | 83% | –
N#Cc1c(Oc2ccc(F)c(NC(=O)Nc3ccc(C(F)(F)F)cc3)c2)ccc2nc(NC(=O)C3CC3)sc12 [Example 32, N-{7-cyano-6-[4-fluoro-3-({[4-(trifluoromethyl)phenyl]carbamoyl}amino)phenoxy]-1,3-benzothiazol-2-yl}cyclopropanecarboxamide] | – | < 300 nM | 83% | –
CC(C)(C#N)c1cccc(C(=O)Nc2cccc(Oc3ccc4nc(NC(=O)C5CC5)sc4c3[N+](=O)[O-])c2)c1 [Example 37, 3-(1-cyano-1-methylethyl)-N-[3-({2-[(cyclopropylcarbonyl)amino]-7-nitro-1,3-benzothiazol-6-yl}oxy)phenyl]benzamide] | – | – | – | IC50 [3]: < 500 nM; inhibition at 10 µM [3]: 93%
CC(C)(C#N)c1cccc(C(=O)Nc2cccc(Oc3ccc4nc(NC(=O)C5CC5)sc4c3N)c2)c1 [Example 43, N-[3-({7-amino-2-[(cyclopropylcarbonyl)amino]-1,3-benzothiazol-6-yl}oxy)phenyl]-3-(1-cyano-1-methylethyl)benzamide] | – | – | – | IC50 [3]: < 500 nM; inhibition at 10 µM [3]: 100%
CC(C)(C#N)c1cccc(C(=O)Nc2cccc(Oc3ccc4nc(NC(=O)C5CC5)sc4c3Cl)c2)c1 [Example 44, N-[3-({7-chloro-2-[(cyclopropylcarbonyl)amino]-1,3-benzothiazol-6-yl}oxy)phenyl]-3-(1-cyano-1-methylethyl)benzamide] | – | – | – | IC50 [3]: < 500 nM; inhibition at 10 µM [3]: 93%

Further lines, with some results ahead:

inhibition at 1 µM [1] | IC50 [2] | SMILES | inhibition at 0.5 µM [2] | further results
– | < 300 nM | CC(=O)Nc1nc2ccc(Oc3cccc(NC(=O)Cc4cccc(C(F)(F)F)c4)c3)c(C#N)c2s1 [Example 49, N-(3-{[2-(acetylamino)-7-cyano-1,3-benzothiazol-6-yl]oxy}phenyl)-2-[3-(trifluoromethyl)phenyl]acetamide] | 63% | –
100% | – | N#Cc1c(Oc2cccc(NC(=O)Nc3ccc(C(F)(F)F)nc3)c2)ccc2nc(NC(=O)C3CC3)sc12 [Example 51, N-{7-cyano-6-[3-({[6-(trifluoromethyl)pyridin-3-yl]carbamoyl}amino)phenoxy]-1,3-benzothiazol-2-yl}cyclopropanecarboxamide] | – | –
98% | – | N#Cc1c(Oc2cccc(NC(=O)Nc3ccc(C(F)(F)F)cn3)c2)ccc2nc(NC(=O)C3CC3)sc12 [Example 52, N-{7-cyano-6-[3-({[5-(trifluoromethyl)pyridin-2-yl]carbamoyl}amino)phenoxy]-1,3-benzothiazol-2-yl}cyclopropanecarboxamide] | – | –
– | < 300 nM | COC(=O)c1c(Oc2ccc(F)c(NC(=O)Cc3cccc(C(F)(F)F)c3)c2)ccc2nc(NC(=O)C3CC3)sc12 [Example 54, methyl 2-[(cyclopropylcarbonyl)amino]-6-[4-fluoro-3-({[3-(trifluoromethyl)phenyl]acetyl}amino)phenoxy]-1,3-benzothiazole-7-carboxylate] | 100% | –
